Bounds are passed on as bounds.

The test deals with RS4;11 cells. Briefly: Cell viability assay (CellTiter-Glo) in RS4;11 cells. In kind it is cell-based. The settings on record: Homo sapiens, 72 h; RS4;11 cells; cell viability, 3 days, CellTiter-Glo; read-out: IC50. The protocol: Specific exemplary heterobifunctional compounds were first characterized using cell viability assays. RS4;11 ALL cells were treated with bifunctional degraders for three days. The IC50 values ranged from 2 nM to over 10 uM.
MV4;11, RS4;11, Kasumi-1, HEL and other cells were treated with NVP-BSK805, TG101209 or selected degraders for 3 days at indicated concentrations following a 3-fold serial dilution.
HEL, RS4;11, MV4;11, Kasumi-1 and other cells were cultured at 37° C. with 5% CO2 in RPMI 1640 or DMEM Medium supplemented with 10% fetal bovine serum. Cells were authenticated using the short tandem repeat (STR) assays. Mycoplasma test results were negative.
Cells were seeded at a density of 5000 cells per well in 96-well assay plates and treated with test compounds following a 8-point or 12-point 3-fold serial dilution. Three days later, cell viability was determined using the CellTiter-Glo assay kit according to the manufacturer's instructions. The dose-response curves were determined and IC50 values were calculated using the GraphPad Prism software following a nonlinear regression (least squares fit) method.
On the technique in general: Cellular ATP, detected with luciferase, serves as a proxy for viable cell number.
On to `Cc1cnc(Nc2ccc(N3CCN(C(=O)CCOCCOCCOCCOCCC(=O)N[C@H](C(=O)N4C[C@H](O)C[C@H]4C(=O)NCc4ccc(-c5scnc5C)cc4)C(C)(C)C)CC3)cc2)nc1Nc1cccc(S(=O)(=O)NC(C)(C)C)c1` [JA-035, (2S,4R)-1-((S)-2-(tert-Butyl)-19-(4-(4-((4-((3-(N-(tert-butyl)sulfamoyl)phenyl)amino)-5-methylpyrimidin-2-yl)amino)phenyl)piperazin-1-yl)-4,19-dioxo-7,10,13,16-tetraoxa-3-azanonadecanoyl)-4-hydroxy-N-(4-(4-methylthiazol-5-yl)benzyl)pyrrolidine-2-carboxamide], for which the IC50 is over 10 µM.
For the compound `Cc1cnc(Nc2ccc(N3CCN(C(=O)COCCOCCOCCOCCOCC(=O)N[C@H](C(=O)N4C[C@H](O)C[C@H]4C(=O)NCc4ccc(-c5scnc5C)cc4)C(C)(C)C)CC3)cc2)nc1Nc1cccc(S(=O)(=O)NC(C)(C)C)c1` [JA-036, (2S,4R)-1-((S)-2-(tert-Butyl)-20-(4-(4-((4-((3-(N-(tert-butyl)sulfamoyl)phenyl)amino)-5-methylpyrimidin-2-yl)amino)phenyl)piperazin-1-yl)-4,20-dioxo-6,9,12,15,18-pentaoxa-3-azaicosanoyl)-4-hydroxy-N-(4-(4-methylthiazol-5-yl)benzyl)pyrrolidine-2-carboxamide], the IC50 was over 10 µM.
As to `Cc1cnc(Nc2ccc(N3CCN(C(=O)CCOCCOCCOCCOCCOCCC(=O)N[C@H](C(=O)N4C[C@H](O)C[C@H]4C(=O)NCc4ccc(-c5scnc5C)cc4)C(C)(C)C)CC3)cc2)nc1Nc1cccc(S(=O)(=O)NC(C)(C)C)c1` [JA-037, (2S,4R)-1-((S)-2-(tert-Butyl)-22-(4-(4-((4-((3-(N-(tert-butyl)sulfamoyl)phenyl)amino)-5-methylpyrimidin-2-yl)amino)phenyl)piperazin-1-yl)-4,22-dioxo-7,10,13,16,19-pentaoxa-3-azadocosanoyl)-4-hydroxy-N-(4-(4-methylthiazol-5-yl)benzyl)pyrrolidine-2-carboxamide], the IC50 was over 10 µM.
With `O=C1CCC(N2C(=O)c3cccc(NCCCCCCCC(=O)N4CCC(n5cc(-c6cnc7cccc(-c8cc(F)c(CN9CCOCC9)c(F)c8)c7n6)cn5)CC4)c3C2=O)C(=O)N1` (stereo not shown) [JA-038, 4-[[8-[4-[4-[8-[3,5-Difluoro-4-(morpholinomethyl)phenyl]quinoxalin-2-yl]pyrazol-1-yl]-1-piperidyl]-8-oxo-octyl]amino]-2-(2,6-dioxo-3-piperidyl)isoindoline-1,3-dione], the IC50 was over 10 µM.
The figure for `O=C1CCC(N2C(=O)c3cccc(NCCOCCOCCC(=O)N4CCC(n5cc(-c6cnc7cccc(-c8cc(F)c(CN9CCOCC9)c(F)c8)c7n6)cn5)CC4)c3C2=O)C(=O)N1` (stereo not shown) [JA-039, 4-[2-[2-[3-[4-[4-[8-[3,5-Difluoro-4-(morpholinomethyl)phenyl]quinoxalin-2-yl]pyrazol-1-yl]-1-piperidyl]-3-oxo-propoxy]ethoxy]ethylamino]-2-(2,6-dioxo-3-piperidyl)isoindoline-1,3-dione] is over 10 µM; for `O=C1CCC(N2C(=O)c3cccc(NCCCCCCC(=O)N4CCC(n5cc(-c6cnc7cccc(-c8cc(F)c(CN9CCOCC9)c(F)c8)c7n6)cn5)CC4)c3C2=O)C(=O)N1` (stereo not shown) [JA-040, 4-[[7-[4-[4-[8-[3,5-Difluoro-4-(morpholinomethyl)phenyl]quinoxalin-2-yl]pyrazol-1-yl]-1-piperidyl]-7-oxo-heptyl]amino]-2-(2,6-dioxo-3-piperidyl)isoindoline-1,3-dione] it is over 10 µM; for `Cc1ncsc1-c1ccc(CNC(=O)[C@@H]2C[C@@H](O)CN2C(=O)[C@@H](NC(=O)CCCCC(=O)N2CCC(n3cc(-c4cnc5cccc(-c6cc(F)c(CN7CCOCC7)c(F)c6)c5n4)cn3)CC2)C(C)(C)C)cc1` [JA-041, (2S,4R)-1-[(2S)-2-[[6-[4-[4-[8-[3,5-Difluoro-4-(morpholinomethyl)phenyl]quinoxalin-2-yl]pyrazol-1-yl]-1-piperidyl]-6-oxo-hexanoyl]amino]-3,3-dimethyl-butanoyl]-4-hydroxy-N-[[4-(4-methylthiazol-5-yl)phenyl]methyl]pyrrolidine-2-carboxamide] it is over 10 µM.
In the case of `Cc1ncsc1-c1ccc(CNC(=O)[C@@H]2C[C@@H](O)CN2C(=O)[C@@H](NC(=O)CCCCCCCCC(=O)N2CCC(n3cc(-c4cnc5cccc(-c6cc(F)c(CN7CCOCC7)c(F)c6)c5n4)cn3)CC2)C(C)(C)C)cc1` [JA-042, (2S,4R)-1-[(2S)-2-[[10-[4-[4-[8-[3,5-Difluoro-4-(morpholinomethyl)phenyl]quinoxalin-2-yl]pyrazol-1-yl]-1-piperidyl]-10-oxo-decanoyl]amino]-3,3-dimethyl-butanoyl]-4-hydroxy-N-[[4-(4-methylthiazol-5-yl)phenyl]methyl]pyrrolidine-2-carboxamide], the IC50 is over 10 µM.
In the case of `O=C1CCC(N2C(=O)c3cccc(NCCOCCOCCOCCOCCOCCC(=O)N4CCC(n5cc(-c6cnc7cccc(-c8cc(F)c(CN9CCOCC9)c(F)c8)c7n6)cn5)CC4)c3C2=O)C(=O)N1` (stereo not shown) [JA-043, 4-[2-[2-[2-[2-[2-[3-[4-[4-[8-[3,5-Difluoro-4-(morpholinomethyl)phenyl]quinoxalin-2-yl]pyrazol-1-yl]-1-piperidyl]-3-oxo-propoxy]ethoxy]ethoxy]ethoxy]ethoxy]ethylamino]-2-(2,6-dioxo-3-piperidyl)isoindoline-1,3-dione], the IC50 worked out at 7.54 µM.
In the case of `Cc1ncsc1-c1ccc(CNC(=O)[C@@H]2C[C@@H](O)CN2C(=O)[C@@H](NC(=O)CCOCCOCCOCCOCCOCCC(=O)N2CCC(n3cc(-c4cnc5cccc(-c6cc(F)c(CN7CCOCC7)c(F)c6)c5n4)cn3)CC2)C(C)(C)C)cc1` [JA-044, (2S,4R)-1-[(2S)-2-[3-[2-[2-[2-[2-[3-[4-[4-[8-[3,5-Difluoro-4-(morpholinomethyl)phenyl]quinoxalin-2-yl]pyrazol-1-yl]-1-piperidyl]-3-oxo-propoxy]ethoxy]ethoxy]ethoxy]ethoxy]propanoylamino]-3,3-dimethyl-butanoyl]-4-hydroxy-N-[[4-(4-methylthiazol-5-yl)phenyl]methyl]pyrrolidine-2-carboxamide], the IC50 was over 10 µM.
Consider `O=C1CCC(N2C(=O)c3cccc(NCCOCCC(=O)N4CCC(n5cc(-c6cnc7cccc(-c8cc(F)c(CN9CCOCC9)c(F)c8)c7n6)cn5)CC4)c3C2=O)C(=O)N1` (stereo not shown) [JA-045, 4-[2-[3-[4-[4-[8-[3,5-Difluoro-4-(morpholinomethyl)phenyl]quinoxalin-2-yl]pyrazol-1-yl]-1-piperidyl]-3-oxo-propoxy]ethylamino]-2-(2,6-dioxo-3-piperidyl)isoindoline-1,3-dione], for which the IC50 worked out at 1.26 µM.
For `Cc1ncsc1-c1ccc(CNC(=O)[C@@H]2C[C@@H](O)CN2C(=O)[C@@H](NC(=O)CCCC(=O)N2CCC(n3cc(-c4cnc5cccc(-c6cc(F)c(CN7CCOCC7)c(F)c6)c5n4)cn3)CC2)C(C)(C)C)cc1` [JA-046, (2S,4R)-1-[(2S)-2-[[5-[4-[4-[8-[3,5-Difluoro-4-(morpholinomethyl)phenyl]quinoxalin-2-yl]pyrazol-1-yl]-1-piperidyl]-5-oxo-pentanoyl]amino]-3,3-dimethyl-butanoyl]-4-hydroxy-N-[[4-(4-methylthiazol-5-yl)phenyl]methyl]pyrrolidine-2-carboxamide], the IC50 was over 10 µM.
Take `O=C1CCC(N2C(=O)c3cccc(NCCOCCOCCOCCOCCC(=O)N4CCC(n5cc(-c6cnc7cccc(-c8cc(F)c(CN9CCOCC9)c(F)c8)c7n6)cn5)CC4)c3C2=O)C(=O)N1` (stereo not shown) [JA-047, 4-[2-[2-[2-[2-[3-[4-[4-[8-[3,5-Difluoro-4-(morpholinomethyl)phenyl]quinoxalin-2-yl]pyrazol-1-yl]-1-piperidyl]-3-oxo-propoxy]ethoxy]ethoxy]ethoxy]ethylamino]-2-(2,6-dioxo-3-piperidyl)isoindoline-1,3-dione]: the IC50 is 3.44 µM.
`Cc1ncsc1-c1ccc(CNC(=O)[C@@H]2C[C@@H](O)CN2C(=O)[C@@H](NC(=O)CCCCCC(=O)N2CCC(n3cc(-c4cnc5cccc(-c6cc(F)c(CN7CCOCC7)c(F)c6)c5n4)cn3)CC2)C(C)(C)C)cc1` [JA-048, (2S,4R)-1-[(2S)-2-[[7-[4-[4-[8-[3,5-Difluoro-4-(morpholinomethyl)phenyl]quinoxalin-2-yl]pyrazol-1-yl]-1-piperidyl]-7-oxo-heptanoyl]amino]-3,3-dimethyl-butanoyl]-4-hydroxy-N-[[4-(4-methylthiazol-5-yl)phenyl]methyl]pyrrolidine-2-carboxamide]: the IC50 is over 10 µM.
The same measure for `O=C1CCC(N2C(=O)c3cccc(NCCOCCOCCOCCC(=O)N4CCC(n5cc(-c6cnc7cccc(-c8cc(F)c(CN9CCOCC9)c(F)c8)c7n6)cn5)CC4)c3C2=O)C(=O)N1` (stereo not shown) [JA-049, 4-[2-[2-[2-[3-[4-[4-[8-[3,5-Difluoro-4-(morpholinomethyl)phenyl]quinoxalin-2-yl]pyrazol-1-yl]-1-piperidyl]-3-oxo-propoxy]ethoxy]ethoxy]ethylamino]-2-(2,6-dioxo-3-piperidyl)isoindoline-1,3-dione]: 1.27 µM; for `Cc1ncsc1-c1ccc(CNC(=O)[C@@H]2C[C@@H](O)CN2C(=O)[C@@H](NC(=O)CCOCCOCCOCCC(=O)N2CCC(n3cc(-c4cnc5cccc(-c6cc(F)c(CN7CCOCC7)c(F)c6)c5n4)cn3)CC2)C(C)(C)C)cc1` [JA-050, (2S,4R)-1-[(2S)-2-[3-[2-[2-[3-[4-[4-[8-[3,5-Difluoro-4-(morpholinomethyl)phenyl]quinoxalin-2-yl]pyrazol-1-yl]-1-piperidyl]-3-oxo-propoxy]ethoxy]ethoxy]propanoylamino]-3,3-dimethyl-butanoyl]-4-hydroxy-N-[[4-(4-methylthiazol-5-yl)phenyl]methyl]pyrrolidine-2-carboxamide]: over 10 µM.

As usually defined, the IC50 is the concentration that inhibits the measured activity by half.
